Holding throughout (assay): inhibition of tumour cell growth, NCI panel, 48 h
The test system of test [1] is 786-0 renal.
The subject of test [2] is BT-549 breast.
Test [3] concerns EKVX NSCLC.
In test [4] the test system is HCT-15 colon.
In test [5] the test system is M14 melanoma.
Test [6] deals with MDA-MB-231 breast.
The test system of test [7] is NCI-H23 lung.
Test [8] relates to OVCAR-8 ovarian.
For test [9], the system named is RPMI-8226 leukemia.
For test [10], the system named is UACC-257 melanoma.

Structures are written as SMILES.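 Values below derive from 48-hour exposures of cells grown in 96-well plates, with endpoints linearly interpolated between the two concentrations bracketing the appropriate inhibition level. TGI is the concentration that stops growth completely.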

`S=C(N/N=C(\c1ccccc1)c1ccccn1)NC1CCCCC1`: the TGI in test [1], in test [2], in test [3], in [4], in [5] and in test [6] was over 100 µM throughout. For the same molecule, the TGI is over 100 µM in test [7], 3.44 µM in [8], over 100 µM in test [9] and over 100 µM in test [10].

Take `NS(=O)(=O)c1nnc(NC(=O)C23CC4CC(CC(C4)C2)C3)s1`: the TGI in test [1], in test [2], in test [3], in [4], in test [5] and in test [6] was over 100 µM throughout. Moreover, the TGI in [7], in test [8], in test [9] and in [10] was over 100 µM in each case.

For the molecule `COc1cccc(C23CCCC(C2)NCC3Br)c1OC` (stereo not given), the TGI in test [1] is over 100 µM; in test [2], 92.3 µM; in test [3] it was over 100 µM; in [4] it was over 100 µM; in test [5], over 100 µM; in test [6], over 100 µM. In addition, the TGI in test [7] is over 100 µM; in test [8], over 100 µM; in test [9], 45.7 µM; in test [10] it was over 100 µM.

With `COc1cc(-c2nc3ccc(N4CCN(C)CC4)cc3[nH]2)c(OC)c2[nH]c(COC(C)=O)nc12`, the TGI in [1] was over 100 µM; in test [2], over 100 µM; in [3], over 100 µM; in test [4] it was over 100 µM; in [5], 35 µM; in [6] it was over 100 µM. The TGI in [7], in [8], in [9] and in test [10] was over 100 µM each time.

For the molecule `COc1cc(CSc2ccc(O)cc2)cc(OC)c1OC`, the TGI in test [1] was over 100 µM; in test [2] it was 48.3 µM; in test [3], over 100 µM; in test [4] it was over 100 µM; in test [5] it was over 100 µM; in test [6] it was over 100 µM. The TGI in test [7] was over 100 µM; in test [8], over 100 µM; in test [9] it was 66.1 µM; in test [10], over 100 µM.

On to `Cc1cccc(Br)[n+]1[O-]`, for which the TGI in [1], in [2], in test [3], in test [4], in test [5] and in test [6] was over 100 µM in each case. Moreover, the TGI in [7], in [8], in test [9] and in [10] was over 100 µM throughout.

As for `COc1ccccc1Cc1ccc(C2C=CC3(CC(=O)C=C3C)C(=O)C2)o1` (stereo not given), the TGI in test [1] was 41.9 µM; in [2], 58.7 µM; in [3], over 100 µM; in [4], 81.4 µM; in test [5], over 100 µM; in test [6] it was 50.1 µM. The TGI was determined as 58.3 µM in [7], 37.1 µM in test [8], 39.2 µM in [9] and 68.9 µM in test [10].

For `CCOC(=O)c1nc2ccc(C(F)(F)F)cc2nc1Nc1cc(OC)c(OC)c(OC)c1`, the TGI in test [1], in test [2], in test [3], in [4], in [5] and in [6] was over 100 µM in each case. Besides, the TGI in [7], in [8], in test [9] and in [10] was over 100 µM each time.

As to `Cc1ccc(C(=O)Nc2ccc(CP(=O)(O)O)cc2)cc1NC(=O)c1cccc(N)c1`, the TGI in test [1], in test [2], in [3], in test [4], in test [5] and in test [6] was over 100 µM each time. Besides, the TGI in test [7], in test [8], in test [9] and in test [10] was over 100 µM in each case.

For the molecule `COc1ccc(/C(C)=N/NC(=O)c2ccncc2)c(OC)c1`, the TGI in test [1], in test [2], in test [3], in test [4], in test [5] and in [6] was over 10 µM in each case. Moreover, the TGI in [7], in test [8], in test [9] and in [10] was over 10 µM throughout.

As to `CCCCCCCCCCCC(=O)OC[C@H](C[As](=O)(O)O)OC(=O)CCCCCCCCCCC`, the TGI in test [1] stood at 26 µM; in test [2], 11.3 µM; in test [3], 25.6 µM; in [4] it was 23.9 µM; in test [5], 10.5 µM; in [6], 16.3 µM. Further, the TGI was 21.2 µM in test [7], 27.8 µM in [8], over 76.8 µM in test [9] and 24.9 µM in [10].

On to `CCCNC(=S)N/N=C(\C)c1ccc(S(=O)(=O)N(C)c2ccccc2)cc1`, for which the TGI in [1] is over 72.9 µM; in test [2], over 100 µM; in test [3] it was over 100 µM; in [4] it was over 100 µM; in test [5], over 87.4 µM; in test [6], over 100 µM. The TGI in test [7] is over 100 µM; in test [8] it was over 100 µM; in [9], over 31.6 µM; in test [10] it was over 100 µM.

On to `CCCCn1c(CSc2ccc(Cl)cc2)c(C(=O)OCC)c2cc(OC)c(Br)cc21`, for which the TGI in [1], in [2], in test [3], in test [4], in [5] and in [6] was over 100 µM in each case. The TGI in [7], in [8], in test [9] and in test [10] was over 100 µM in each case.

Regarding `COc1cc2c(c(OC)c1OC)C(=O)[C@@H]1[C@H]2N1C(=O)NCCCl`, the TGI in [1], in test [2], in [3], in test [4], in test [5] and in [6] was over 100 µM each time. Also, the TGI in test [7], in test [8], in [9] and in test [10] was over 100 µM in each case.

On to `CSC1(C)C(=O)Nc2c(OCc3ccccc3)cc([N+](=O)[O-])cc21` (stereo not given), for which the TGI in test [1] was 31 µM; in test [2], over 100 µM; in test [3], over 100 µM; in test [4], over 100 µM; in test [5], over 100 µM; in test [6] it was over 100 µM. The TGI was over 100 µM in test [7], 55.1 µM in test [8], over 100 µM in test [9] and over 100 µM in test [10].

With `COc1ccc(/C=C/C(=O)/C=C/c2ccc(OC)cc2OC)c(OC)c1`, the TGI in test [1] amounted to 29 µM; in [2], 48 µM; in [3], 33.3 µM; in test [4], 20 µM; in test [5], 36.2 µM; in [6] it was 78.5 µM. The TGI was 43 µM in test [7], 41.1 µM in test [8], 18.6 µM in test [9] and 39.9 µM in test [10].

For the molecule `CC(=O)Oc1cc(S(=O)(=O)Nc2n[nH]c(Nc3ccc(C)cc3)n2)c(S)cc1Cl`, the TGI in test [1], in [2], in [3], in [4], in test [5] and in test [6] was over 100 µM each time. Also, the TGI in [7], in test [8], in test [9] and in test [10] was over 100 µM in each case.

`COC(=O)C1CCC(=S)N1C(=O)OCc1ccccc1` (stereo not given): the TGI in [1], in test [2], in test [3], in test [4], in [5] and in test [6] was over 100 µM throughout. The TGI in test [7], in test [8], in test [9] and in test [10] was over 100 µM in each case.

As for `O=c1c2ccccc2[nH]n1Cc1ccccc1`, the TGI in test [1], in test [2], in [3], in [4], in test [5] and in [6] was over 100 µM each time. The TGI in [7], in test [8], in test [9] and in test [10] was over 100 µM in each case.

In the case of `CCOC(=O)NN(C(=O)OCC)C(C(=O)C1=CCCCC1)N(NC(=O)OCC)C(=O)OCC`, the TGI in test [1], in [2], in test [3], in test [4], in test [5] and in [6] was over 100 µM throughout. For the same molecule, the TGI in test [7], in test [8], in [9] and in [10] was over 100 µM each time.

As for `COc1cc(C)c(/C=C2/N=C(c3ccccc3)OC2=O)c([N+](=O)[O-])c1OC`, the TGI in [1], in [2], in test [3], in test [4], in test [5] and in test [6] was over 100 µM in each case. Moreover, the TGI in [7], in test [8], in test [9] and in test [10] was over 100 µM each time.

For the origin of these results see PubChem BioAssay (NCI).
